Measurements as given in PMC9227096, “Design, Synthesis, and In Vitro, In Silico and In Cellulo Evaluation of New Pyrimidine and Pyridine Amide and Carbamate Derivatives as Multi-Functional Cholinesterase Inhibitors” (Pharmaceuticals, 2022).
Read-outs that look alike come from different tables or passages of the source.

Key:
Assay type in all cases: biochemical
[1] = biological target: T1, Electrophorus electricus AChE (EeAChE) (Electrophorus electricus, UniProt O42275); experiment: Ellman's spectrophotometric method, percent inhibition of EeAChE (zero time and after 1 h incubation); settings: for % Inhibition vs. EeAChE ± SD: [I] 9 µM; for inhibition at 0.9 µM: read-out: % Inhibition vs. EeAChE ± SD, [I] 900 nM
T1 construct: purchased Sigma-Aldrich (Milan, Italy)
T1 sequence (O42275 24-633): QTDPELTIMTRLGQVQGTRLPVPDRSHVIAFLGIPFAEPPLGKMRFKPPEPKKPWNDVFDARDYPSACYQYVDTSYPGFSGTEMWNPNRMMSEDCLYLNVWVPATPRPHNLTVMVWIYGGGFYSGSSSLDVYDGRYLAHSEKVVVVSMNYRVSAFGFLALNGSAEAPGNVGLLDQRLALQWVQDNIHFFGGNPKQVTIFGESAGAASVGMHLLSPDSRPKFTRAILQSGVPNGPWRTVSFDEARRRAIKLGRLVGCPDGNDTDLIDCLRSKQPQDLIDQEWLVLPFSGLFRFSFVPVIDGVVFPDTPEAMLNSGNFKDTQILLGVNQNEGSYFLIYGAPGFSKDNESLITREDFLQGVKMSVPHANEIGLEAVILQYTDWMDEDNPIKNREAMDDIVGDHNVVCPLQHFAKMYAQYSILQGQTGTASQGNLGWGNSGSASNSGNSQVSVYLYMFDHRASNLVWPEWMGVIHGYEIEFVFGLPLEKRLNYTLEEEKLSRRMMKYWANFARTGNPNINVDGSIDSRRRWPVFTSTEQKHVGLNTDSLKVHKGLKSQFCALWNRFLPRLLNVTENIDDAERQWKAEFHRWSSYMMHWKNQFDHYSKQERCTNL
Procedure: (§1) Regarding the synthesized compounds enzymatic inhibition studies were carried out on Electrophorus electricus AChE (EeAChE) and equine BChE (eqBChE), according to Ellman’s spectrophotometric method.
(§2) All other chemical and biological reagents and solvents used were of the highest analytical, commercially available grade. The water, utilized for the preparation of the phosphate buffer and of the solutions of compounds, was distilled and filtered on nylon membrane filters with 0.2 μm pore size with the Millipore® Filtration apparatus before each use. Micropipettes Labmate (BRAND Dig. 10–100 μL; Dig. 100–1000 μL; Dig. 0.1–2 μL) and Transferpette (HIGH TECH LAB LM200: 20–200 μL; LM5000: 1000–5000 μL) were used to collect the samples. The assays were carried out by double beam UV–Vis Lambda 40 Perkin Elmer spectrophotometer, using optical polystyrene cuvettes (10 × 10 × 45 mm, 340–800 nm optical transparency), each measure was repeated at least in triplicate. […] Vivaspin® 2 Sartorius, with a membrane of 3000 MWCO (molecular weight cutoff) consisting of polyethersulfone (PES), cellulose triacetate (CTA) and hydrosart, was used for the ultrafiltration procedures. An ALC PK110 bench-top centrifuge was used for centrifugation. The spectrophotometric method of Ellman, with minor modifications, was used to evaluate the inhibition of cholinesterase enzymes. […] EeAChE and eqBChE were periodically tested to evaluate the effective enzymatic activity.
(§3) An amount of 3.0 mL of a solution in 0.1 M phosphate buffer (pH = 7.4) containing DTNB (0.25 mM) and EeAChE (0.083 UmL^−1) or eqBChE (0.083 UmL^−1) were placed in a polystyrene cuvette of 1.0 cm path length; 1 µL of a solution in DMSO of the tested compound was added to obtain in cuvette concentration range 9 µM–0.09 µM. With this solution the blank was made.
(§4) Each experiment was repeated at least in triplicate.
(§5) The cuvettes were prepared consecutively at intervals of 3 min to allow equal incubation times.

[2] = biological target: T2, equine BChE (eqBChE) (Equus caballus, UniProt P81908); experiment: Ellman's spectrophotometric method, percent inhibition of eqBChE (zero time and after 1 h incubation); settings: for inhibition at 0.9 µM / inhibition at 9 µM: read-out: % Inhibition vs. eqBChE ± SD; for inhibition at 9 µM / % Inhibition vs. eqBChE ± SD: [I] 9 µM
T2 construct: purchased Sigma-Aldrich (Milan, Italy)
T2 sequence (P81908 whole entry): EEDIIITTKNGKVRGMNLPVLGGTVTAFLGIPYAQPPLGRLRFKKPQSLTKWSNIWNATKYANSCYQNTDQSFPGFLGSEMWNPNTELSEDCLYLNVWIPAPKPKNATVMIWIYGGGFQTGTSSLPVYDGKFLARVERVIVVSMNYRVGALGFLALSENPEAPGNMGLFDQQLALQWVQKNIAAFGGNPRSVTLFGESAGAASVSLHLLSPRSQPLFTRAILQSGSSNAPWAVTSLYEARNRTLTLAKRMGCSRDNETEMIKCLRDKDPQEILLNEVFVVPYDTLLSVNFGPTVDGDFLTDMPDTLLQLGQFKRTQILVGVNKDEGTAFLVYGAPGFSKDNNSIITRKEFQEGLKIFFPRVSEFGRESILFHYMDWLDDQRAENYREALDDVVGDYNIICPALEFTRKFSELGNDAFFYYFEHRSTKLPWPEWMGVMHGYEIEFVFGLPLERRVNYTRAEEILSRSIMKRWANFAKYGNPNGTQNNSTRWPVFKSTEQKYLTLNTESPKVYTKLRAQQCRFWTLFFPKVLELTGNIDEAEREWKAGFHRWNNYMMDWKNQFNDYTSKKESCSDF
Procedure: as §1, §2, §3, §4, §5

[3] = biological target: T2, equine BChE (eqBChE); experiment: Reversibility of inhibition vs. eqBChE (ultrafiltration and washing); settings: for inhibition at 54 µM: carbaryl 54 µM
Procedure: Moreover, it was evaluated whether the inhibition mechanism of carbamate 18 towards eqBChE is reversible, irreversible or pseudo-irreversible. For this purpose, the percentages of inhibition were determined both after one hour of the incubation of compound 18 (5.4 µM) with eqBChE (1.25 U), both following the removal of the inhibitor and the washing of the enzyme, carried out through ultrafiltration devices for the concentration of biological samples [35, 36]. To validate the method, the same study was performed with carbaryl (54 µM), a known carbamoylating cholinesterase inhibitor.
After the incubation phase, the solution containing the inhibitor not bound to the enzyme was removed by centrifugation, retaining eqBChE on the membrane of the ultrafiltration devices. Then the enzyme was washed with phosphate buffer, to remove the bound inhibitor and to restore the enzyme activity.
Three solutions were prepared in 0.1 M phosphate buffer (pH = 7.4), containing eqBChE (0.50 UmL^−1), DTNB (0.3 mM) and acetylthiocholine (10 mM), respectively. A solution of compound 18 in DMSO (2.7 mM) was prepared. Then six Vivaspin® were used: • three were prepared with 2.5 mL of eqBChE solution (0.50 UmL^−1) and 5 µL of inhibitor solution; • three were prepared with 2.5 mL of eqBChE solution (0.50 UmL^−1) and 5 µL of DMSO.
The Vivaspin® thus prepared were incubated for 1 h at 25 °C. After this time the percentage of inhibition was determined following the Ellman method. The blank was recorded by taking 500 µL from the Vivaspin® and diluting them in the cuvette in 2.5 mL of DTNB solution (0.3 mM). The reaction was activated by adding 30 μL of acetylthiocholine solution (10 mM), so as to obtain a final concentration of 100 µM in the cuvette. The absorbance variation was measured between 0.5 and 1.5 min at 412 nm, repeating the measurement for each of the six Vivaspin®.
After this procedure the first centrifugation of the Vivaspin® was carried out for 60 min at 4000 rpm and subsequently the solutions that crossed the membrane and settled in the filtrate tube were removed. In this way the solutions present in the concentrator body were concentrated up to 100 µL. To these solutions 1 mL of 0.1 M phosphate buffer (pH = 7.4) was added and the second centrifugation was carried out for 30 min at 4000 rpm. The solutions present in the concentrator body were concentrated up to 200 µL. The second washing was carried out, adding 1 mL of buffer and centrifuging for 30 min at 4000 rpm. The solutions present in the concentrator body were concentrated up to 250 µL. A third wash was carried out adding 1 mL of buffer and centrifuging for 50 min at 4000 rpm. The solutions present in the concentrator body were concentrated up to 150 µL. At this point, to recover the concentrated solution, the filtrate tube was removed, the concentrator body was turned upside down and inserted inside the concentrate recovery cap. The Vivaspin® was centrifuged for 10 min at 4000 rpm. After this time the recovered solution was taken up with 3 mL of DTNB solution (0.3 mM) and transferred into the cuvette: blank was recorded. The reaction was activated when 30 µL of substrate solution (10 mM) were added so as to have a final concentration of 100 µM in the cuvette. The absorbance variation between 0.5 and 1.5 min was measured at 412 nm, repeating the measurement for each of the recovered solutions.
As a positive control carbaryl was used, for which the same procedure was followed, using a 27 mM carbaryl stock solution in DMSO.

[4] = read-out: % Inhibition vs. EeAChE ± SD, [I] 9 µM, 0.0833 U/mL enzyme, 100 µM acetylthiocholine
[5] = [I] 900 nM, 0.0833 U/mL enzyme, 100 µM acetylthiocholine
[6] = 0.0833 U/mL enzyme, 100 µM acetylthiocholine
[7] = 1 h, read-out: % Inhibition vs. EeAChE ± SD, [I] = 9 µM, t = 1 h incubation at 25 °C
[8] = 1 h, [I] = 900 nM, t = 1 h incubation at 25 °C

`O=C(Cc1ccccc1)NCCCCCCNc1ccccn1` [Compound 13, 2-phenyl-N-(6-(pyridine-2-ylamino)hexyl)acetamide] showed an inhibition at 9 µM [1, 4] of 46.7 ± 1.1%, an inhibition at 0.9 µM [2, 5] of 4.3 ± 5.6% and an inhibition at 9 µM [2, 6] of 49.1 ± 3.2%.

`O=C(Cc1ccc(Oc2ccccc2)cc1)NCCCCCCNc1ncccn1` [Compound 5, 2-(4-phenoxyphenyl)-N-(6-(pyrimidin-2-ylamino)hexyl)acetamide] was tested, and the inhibition at 9 µM [1, 4] was 10.8 ± 2.7% and the inhibition at 9 µM [2, 6] was 16.6 ± 5.5%.

`O=C(NCCCCCCNc1ncccn1)c1cc2ccccc2[nH]1` [Compound 11, N-(6-(pyrimidin-2-ylamino)hexyl)-1H-indole-2-carboxamide] was tested, and the “% Inhibition vs. EeAChE ± SD” value [1, 6] was “ns ^c”, the inhibition at 0.9 µM [1, 6] was 5.5 ± 1.4% and the inhibition at 0.9 µM [2, 5] was 14.1 ± 4.7%. For the same compound, the “% Inhibition vs. eqBChE ± SD” value [2, 6] was “ns ^c”.

`O=C(NCCCCCCNc1ncccn1)c1ccc(Br)cc1` [Compound 7, 4-bromo-N-(6-(pyrimidin-2-ylamino)hexyl)benzamide] showed an inhibition at 9 µM [1, 4] of 11.2 ± 5% and an inhibition at 9 µM [2, 6] of 7.4 ± 2%.

For `CNC(=O)Oc1cccc2ccccc12` [carbaryl, reference compound], the inhibition at 54 µM ([3]; after ultrafiltration and washing with phosphate buffer, read-out: percentage of inhibition of eqBChE after removal of inhibitor and washing of the enzyme) was 29.9%, the inhibition at 54 µM ([3]; before washing, read-out: percentage of inhibition of eqBChE after one hour of incubation) was 97.4% and the “inhibition mechanism towards eqBChE (reversible, irreversible or pseudo-irreversible)” value ([3]; from restoration of enzymatic activity after washing) was “pseudo-irreversible”.

For `O=C(C=Cc1ccccc1)NCCCCCCNc1ncccn1` [Compound 6, N-(6-(pyrimidin-2-ylamino)hexyl)cinnamamide], the “% Inhibition vs. EeAChE ± SD” value [1, 6] was “ns ^c”, the inhibition at 0.9 µM [1, 6] was 7 ± 1.6% and the “% Inhibition vs. eqBChE ± SD” value [2, 6] was “ns ^c”.

For `O=C(NCCCCCCNc1ncccn1)OCc1ccccc1` [Compound 17, Benzyl (6-(pyrimidin-2-ylamino)hexyl)carbamate], the inhibition at 9 µM [1, 7] was 10.9 ± 1.4% and the inhibition at 0.9 µM [2, 8] was 13.3 ± 3.9%.

`O=C(NCCCCCCNc1ccccn1)OCc1ccccc1` [Compound 19, Benzyl (6-(pyridin-2-ylamino)hexyl)carbamate] was tested, and the inhibition at 9 µM [1, 7] was 45.4 ± 2.7% and the inhibition at 0.9 µM [2, 8] was 32.4 ± 7.5%.

Work on `O=C(C=Cc1ccccc1)NCCCCCCNc1ccccn1` [Compound 15, N-(6-(pyridin-2-ylamino)hexyl)cinnamamide] yielded an inhibition at 9 µM [1, 4] of 45.4 ± 2.5%, an inhibition at 0.9 µM [2, 5] of 31.5 ± 3.1% and an inhibition at 9 µM [2, 6] of 64.7 ± 2.9%.

`O=C(Cc1ccccc1)NCCCCCCNc1ncccn1` [Compound 4, 2-phenyl-N-(6-(pyrimidin-2-ylamino)hexyl)acetamide] was tested, and the inhibition at 9 µM [1, 4] was 5 ± 4.4% and the inhibition at 9 µM [2, 6] was 5.1 ± 4.7%.

With `COc1ccccc1C(=O)NCCCCCCNc1ncccn1` [Compound 9, 2-methoxy-N-(6-(pyrimidin-2-ylamino)hexyl)benzamide] the inhibition at 9 µM [1, 4] was 7.2 ± 0.8% and the inhibition at 9 µM [2, 6] was 9.3 ± 2.4%.

Work on `O=C(NCCCCCCNc1ncccn1)c1ccccc1` [Compound 3, N-(6-(pyrimidin-2-ylamino)hexyl)benzamide] yielded an inhibition at 9 µM [1, 4] of ~3% and an inhibition at 9 µM [2, 6] of ~9%.

In the case of `O=C(NCCCCCCNc1ncccn1)c1ccc(Cl)cc1` [Compound 8, 4-chloro-N-(6-(pyrimidin-2-ylamino)hexyl)benzamide], the inhibition at 9 µM [1, 4] is reported as 9.9 ± 0.8% and the inhibition at 9 µM [2, 6] is reported as 2.1 ± 3.5%.

`O=C(NCCCCCCNc1ncccn1)Oc1ccccc1` [Compound 16, Phenyl (6-(pyrimidin-2-ylamino)hexyl)carbamate] gave an inhibition at 9 µM [1, 7] of 7.2 ± 0.8% and an inhibition at 0.9 µM [2, 8] of 66.4 ± 5.9%.
